Results published in patent publication US20160016944A1, “FUNGICIDAL 3--HETEROCYCLE DERIVATIVES” (priority 2013, published 2016).
Read-outs that look alike come from different tables or passages of the source. Marks after values point to notes of the source that are not given here.

Assays:
Phytophthora infestans = type: in vivo; settings: tomato plants, preventive spray, 500 ppm active ingredient, evaluated 5 days after inoculation
[1] = logP by HPLC on reversed phase columns (EEC directive 79/831 Annex V.A8); settings: for chromatographic logP: pH 2.7; for LogP: method [a]: HPLC/LC-MS at pH 2.7, 0.1% formic acid in water / acetonitrile gradient, Table 1
Description: (§2) Calibration was done with not branched alkan2-ones (with 3 to 16 carbon atoms) with known log P-values (measurement of log P values using retention times with linear interpolation between successive alkanones). lambda-maX-values were determined using UV-spectra from 200 nm to 400 nm and the peak values of the chromatographic signals.

[2] = pH 2.7
Description: as §2

Pyrenophora teres = assay: In vivo preventive test on Pyrenophora teres (net blotch on barley); settings: barley plants, preventive spray, 500 ppm active ingredient, evaluated 14 days after inoculation
Description: (§1) The tested active ingredients are prepared by homogenization in a mixture of acetone/Dimethyl sulfoxide/Tween®, and then diluted with water to obtain the desired active material concentration.
The young plants of barley are treated by spraying the active ingredient prepared as described above. Control plants are treated only with an aqueous solution of acetone/Dimethyl sulfoxide/Tween®.
After 24 hours, the plants are contaminated by spraying the leaves with an aqueous suspension of Pyrenophora teres spores. The contaminated barley plants are incubated for 48 hours at 20° C. and at 100% relative humidity and then for 12 days at 20° C. and at 70-80% relative humidity.
The test is evaluated 14 days after the inoculation. 0% means an efficacy which corresponds to that of the control plants while an efficacy of 100% means that no disease is observed.

Botrytis cinerea = assay: In vivo preventive test on Botrytis cinerea (grey mould); settings: gherkin plants, preventive spray, 500 ppm active ingredient, evaluated 4 to 5 days after inoculation
Description: as §1
The young plants of gherkin are treated by spraying the active ingredient prepared as described above. Control plants are treated only with an aqueous solution of acetone/Dimethyl sulfoxide/Tween®.
After 24 hours, the plants are contaminated by spraying the leaves with an aqueous suspension of Botrytis cinerea spores. The contaminated gherkin plants are incubated for 4 to 5 days at 17° C. and at 90% relative humidity.
The test is evaluated 4 to 5 days after the inoculation. 0% means an efficacy which corresponds to that of the control plants while an efficacy of 100% means that no disease is observed.

Plasmopara viticola = assay: Plasmopara test (grapevines) / preventive; type: in vivo; settings: grapevine young plants, preventive spray, 10 ppm active ingredient, evaluated 6 days after inoculation
Description: To produce a suitable preparation of active compound, 1 part by weight of active compound is mixed with the stated amounts of solvent and emulsifier, and the concentrate is diluted with water to the desired concentration.
To test for preventive activity, young plants are sprayed with the preparation of active compound at the stated rate of application. After the spray coating has dried on, the plants are inoculated with an aqueous spore suspension of Plasmopara viticola and then remain for 1 day in an incubation cabinet at approximately 20° C. and a relative atmospheric humidity of 100%. The plant is subsequently placed for 4 days in a greenhouse at approximately 21° C. and a relative atmospheric humidity of approximately 90%. The plants are then misted and placed for 1 day in an incubation cabinet.
The test is evaluated 6 days after the inoculation. 0% means an efficacy which corresponds to that of the untreated control, while an efficacy of 100% means that no disease is observed.

For `Cn1c(/C(=N\OCc2cccc(NC(=O)OC(C)(C)C)n2)c2ccccc2)noc1=S` [Example 1, tert-butyl {6-[({[(Z)-(4-methyl-5-thioxo-4,5-dihydro-1,2,4-oxadiazol-3-yl)(phenyl)methylene]amino}oxy)methyl]pyridin-2-yl}carbamate], the “% efficacy” value (Phytophthora infestans) was 97% and the chromatographic logP [1] was 4.66.
For `C#CCCOC(=O)Nc1cccc(CO/N=C(/c2ccccc2)c2noc(=S)n2C)n1` [Example 2, but-3-yn-1-yl {6-[({[(Z)-(4-methyl-5-thioxo-4,5-dihydro-1,2,4-oxadiazol-3-yl)(phenyl)methylene]amino}oxy)methyl]pyridin-2-yl}carbamate], the “% efficacy” value (Phytophthora infestans) was 93% and the chromatographic logP [1] was 3.87.
With `C#CCC(C)(C)OC(=O)Nc1cccc(CON=C(c2ccccc2)c2noc(=S)n2C)n1` [Example 3] the “% efficacy” value (Phytophthora infestans) was 93% and the LogP [1] was 4.54^[a].
With `Cn1c(C(=NOCc2cccc(NC(=O)OCc3ccccc3)n2)c2ccccc2)noc1=S` [Example 4] the LogP [1] was 4.58^[a].
For `CCCCCOC(=O)Nc1cccc(CON=C(c2ccccc2)c2noc(=S)n2C)n1` [Example 5], the “% efficacy” value (Phytophthora infestans) was 80% and the LogP [1] was 5.05^[a].
In the case of `CCCCC(=O)Nc1cccc(CON=C(c2ccccc2)c2noc(=S)n2C)n1` [Example 6], the “% efficacy” value (Phytophthora infestans) is reported as 99%, the LogP [2] is reported as 4.18^[a] and the “% efficacy” value (Pyrenophora teres) is reported as 96%.
In the case of `Cn1c(/C(=N\OCc2cccc(N)n2)c2ccccc2)noc1=S` [Example 7, 3-[(Z)-{[(6-aminopyridin-2-yl)methoxy]imino}(phenyl)methyl]-4-methyl-1,2,4-oxadiazole-5(4H)-thione], the “% efficacy” value (Phytophthora infestans) is reported as 99% and the chromatographic logP [1] is reported as 1.59.
With `Cn1oc(=S)nc1C(=NOCc1csc(NC(=O)OCCc2ccccc2)n1)c1ccccc1` [Example 8] the “% efficacy” value (Phytophthora infestans) was 79% and the LogP [1] was 3.76^[a].
For `C#CCCOC(=O)Nc1nc(CON=C(c2ccccc2)c2nc(=S)on2C)cs1` [Example 9], the “% efficacy” value (Phytophthora infestans) was 89% and the LogP [1] was 2.96^[a].
With `Cn1oc(=S)nc1C(=NOCc1csc(NC(=O)COc2ccccc2)n1)c1ccccc1` [Example 10] the “% efficacy” value (Phytophthora infestans) was 84%, the LogP [2] was 3.31^[a] and the “% efficacy” value (Botrytis cinerea) was 74%.
For `Cn1oc(=S)nc1C(=NOCc1csc(NC(=O)C2COc3ccccc3O2)n1)c1ccccc1` (centres unmarked) [Example 11], the “% efficacy” value (Phytophthora infestans) was 76%, the “% efficacy” value (Plasmopara viticola) was 82% and the LogP [2] was 3.50^[a].
In the case of `Cn1oc(=S)nc1C(=NOCc1csc(NC(=O)OC2CC3CCC2C3)n1)c1ccccc1` (centres unmarked) [Example 12], the LogP [1] is reported as 4.06^[a].
In the case of `CCCCCCCC(=O)Nc1nc(CON=C(c2ccccc2)c2nc(=S)on2C)cs1` [Example 13], the “% efficacy” value (Phytophthora infestans) is reported as 98% and the LogP [1] is reported as 4.39^[a].
For `Cn1oc(=S)nc1C(=NOCc1csc(NC(=O)C2(C)CC2)n1)c1ccccc1` [Example 15], the “% efficacy” value (Phytophthora infestans) was 99%, the LogP [2] was 3.11^[a] and the “% efficacy” value (Botrytis cinerea) was 95%.
In the case of `CCCCCC(=O)Nc1nc(CON=C(c2ccccc2)c2nc(=S)on2C)cs1` [Example 16], the “% efficacy” value (Phytophthora infestans) is reported as 76%, the LogP [2] is reported as 3.63^[a] and the “% efficacy” value (Botrytis cinerea) is reported as 95%.
For `C#CCCCCOC(=O)Nc1nc(CON=C(c2ccccc2)c2nc(=S)on2C)cs1` [Example 17], the “% efficacy” value (Phytophthora infestans) was 100% and the LogP [1] was 3.44^[a].
For `CCC(C)SC(=O)Nc1nc(CON=C(c2ccccc2)c2nc(=S)on2C)cs1` (centres unmarked) [Example 18], the “% efficacy” value (Phytophthora infestans) was 83% and the LogP [1] was 3.90^[a].
With `C#CCCOC(=O)Nc1cccc(CON=C(c2ccccc2)c2nc(=NC#N)on2C)n1` [Example 19] the LogP [1] was 3.13^[a].
Work on `Cn1oc(=S)nc1/C(=N\OCc1csc(N)n1)c1ccccc1` [Example 20, 3-[(Z)-{[(2-amino-1,3-thiazol-4-yl)methoxy]imino}(phenyl)methyl]-2-methyl-1,2,4-oxadiazole-5(2H)-thione] yielded a chromatographic logP [1] of 1.53.
For `Cn1oc(=S)nc1C(=NOCc1csc(NC(=O)C(C)(C)C)n1)c1ccccc1` [Example 21], the LogP [1] was 3.31^[a].
In the case of `C#CCC(C)OC(=O)Nc1nc(CON=C(c2ccccc2)c2nc(=S)on2C)cs1` (centres unmarked) [Example 22], the “% efficacy” value (Phytophthora infestans) is reported as 74% and the LogP [1] is reported as 3.23^[a].
With `Cn1oc(=S)nc1C(=NOCc1csc(NC(=O)c2ccccc2)n1)c1ccccc1` [Example 23] the “% efficacy” value (Phytophthora infestans) was 71%, the LogP [1] was 3.31^[a] and the “% efficacy” value (Botrytis cinerea) was 99%.
For `CCCCCCC(=O)Nc1nc(CON=C(c2ccccc2)c2nc(=S)on2C)cs1` [Example 24], the “% efficacy” value (Phytophthora infestans) was 79%, the LogP [2] was 3.99^[a] and the “% efficacy” value (Botrytis cinerea) was 84%.
In the case of `C#CCCC(C)OC(=O)Nc1nc(CON=C(c2ccccc2)c2nc(=S)on2C)cs1` (centres unmarked) [Example 25], the LogP [1] is reported as 3.41^[a].
In the case of `C#CCCOC(=O)Nc1cccc(CON=C(c2ccccc2)c2nc(=S)on2C)n1` [Example 26], the LogP [1] is reported as 3.15^[a].
In the case of `Cn1oc(=S)nc1C(=NOCc1csc(NC(=O)OCCOc2ccccc2)n1)c1ccccc1` [Example 27], the “% efficacy” value (Phytophthora infestans) is reported as 90% and the LogP [1] is reported as 4.18^[a].
For `CN1C(C(=NOCc2cccc(NC(=O)OC(C)(C)C)n2)c2ccccc2)=NOS1=O` (centres unmarked) [Example 28], the LogP [1] was 4.18^[a].
In the case of `C#CCCCOC(=O)Nc1nc(CON=C(c2ccccc2)c2nc(=S)on2C)cs1` [Example 29], the LogP [2] is reported as 3.19^[a] and the “% efficacy” value (Botrytis cinerea) is reported as 71%.
For `Cn1oc(=S)nc1/C(=N\OCc1csc(NC(=O)OC(C)(C)C)n1)c1ccccc1` [Example 30, tert-butyl {4-[({[(Z)-(2-methyl-5-thioxo-2,5-dihydro-1,2,4-oxadiazol-3-yl)(phenyl)methylene]amino}oxy)methyl]-1,3-thiazol-2-yl}carbamate], the “% efficacy” value (Phytophthora infestans) was 100%, the “% efficacy” value (Plasmopara viticola) was 79% and the chromatographic logP [1] was 3.53. For the same molecule, the “% efficacy” value (Pyrenophora teres) was 86%.
For `CC(COc1ccccc1)OC(=O)Nc1nc(CON=C(c2ccccc2)c2nc(=S)on2C)cs1` (centres unmarked) [Example 31], the LogP [1] was 4.44^[a].
With `CCCCC(CC)COC(=O)Nc1nc(CON=C(c2ccccc2)c2nc(=S)on2C)cs1` (centres unmarked) [Example 32] the LogP [1] was 5.55^[a].
In the case of `CNC(=N\O)/C(=N\OCc1cccc(NC(=O)OC(C)(C)C)n1)c1ccccc1` [VIII-1, tert-butyl {6-[({[(1Z,2Z)-2-(hydroxyimino)-2-(methylamino)-1-phenylethylidene]amino}oxy)methyl]pyridin-2-yl}carbamate], the chromatographic logP [1] is reported as 2.6.
